In patent publication US8575376B2, “Steroide anionic compounds, method of their production, usage and pharmaceutical preparation involving them” (Ustav Organicke Chemie A Biochemie Akademie Ved Ceske …, priority 2009, dated 2013):

Legend:
[1] = test system: mice (ICR); assay: Depression-like behavior induced by repeated social defeat, open field; assay type: in vivo, mouse; settings: 1 and 10 mg/kg orally, 30 min prior
Procedure: Naive adult male mice (albino out-bred strain ICR, VELAZ s.r.o., Prague, Czech Republic, 30-37 g) were used in this study. Food and water were available ad libitum. Mice were housed either individually without any handling in self-cleaning cages with a grid floor (8×6×13 cm) or in groups of 17-20 in standard plastic cages (38×22×14 cm) with the floors covered with wooden shavings. After 3 weeks, each individually housed mouse was allowed 30 min adaptation in a Plexiglas neutral observation cage (20×20×30 cm) with clean wooden shavings before it was coupled with a group-housed male partner for 4 min/day. […] Animals were housed, and behavioural testing was performed in a different room during the light phase of the constant light-dark cycle with lights on at 6:00 and off at 18:00 h. Temperature was maintained at 21° C., and relative humidity was 50%. The mice were not handled except on the experimental days.
Group-housed males were used for the experiment. […] Over a 3-min testing period, the distance traveled, as a marker of locomotor/exploratory behaviour, in the open field was measured. […] Thirty minutes following the drug administration, the animal was placed into the open field arena and distance traveled was measured, as described before. […]

[2] = Neuropathic pain model; assay type: in vivo; settings: no data shown
[3] = test system: rats; assay: Forced swim test; assay type: in vivo, rat; settings: 1 mg/kg i.p., 60 min prior, p<0.001
Procedure: Forced swim test is an experimental model of depression and excessive stress used in laboratory rodents. Rats were randomly assigned to two groups of seven animals each. Control group received an injection of cyclodextrine (i.p.) 60 min. prior to experiment, while experimental group was injected i.p. with the compound from example 9 in a dose of 1 mg/kg 60 minutes prior to the experiment. Rats were forced to swim by being individually placed into a bucket (30 cm diameter, 28 cm height) containing water (25° C.). Immobility (floating) in the water is interpreted as a state of despair when the animals realize that an escape is impossible. Immobility was defined as floating (as opposed to active swimming) with minimal effort required for keeping the head above water. All animals received a single 30-minute trial and their behaviour was monitored by an experimenter. The trial was divided into six 5-minute intervals and floating of at least 30 second duration within each interval was recorded by the experimenter.

[4] = test system: rats; assay: Footshock-induced ultrasonic vocalization (anxiety); assay type: in vivo, rat
Procedure: Effect of compound from example 9 application at doses of 0.001 mg/kg, 0.01 mg/kg and 10 mg/kg on ultrasonic vocalization after exposure to stressful situation (foot-shock) as a measure of anxiety. Under conditions of stress and pain, rats are known to emit ultrasonic distress calls at a frequency of about 22 kHz. On the first day, rats were placed into the shock chamber individually and after 30 s of habituation, they received 6 inescapable electric foot-shocks (1 shock/1 minute, 1 mA) of 10 seconds duration. The procedure was repeated 24 hours later, but this time, the animals received only one 10-second shock. Afterwards, the rats were injected i.p. with vehicle (b-cyclodextrine) or the compound from example 9 at doses of 0.001, 0.01, and 10 mg/kg) 30 min prior to testing. During the test session, animals were placed into the shock chamber for 10 minutes and their ultrasonic vocalization was recorded. […] Each animal was recorded separately with a Mini-3 Bat Detector (Ultra Sound Advice, London, UK). Ultrasonic vocalizations at 22-kHz consisting of calls with a minimal duration of 300 ms were recorded and analyzed by UltraVox 2.0 program (Noldus, Wageningen, The Netherlands). The total number of vocalization events and their total duration were recorded.

Structure (SMILES): CC(=O)[C@H]1CC[C@H]2[C@@H]3CC[C@@H]4C[C@H](OC(=O)[C@@H](N)CCC(=O)O)CC[C@]4(C)[C@H]3CC[C@]12C [Example 9, 20-Oxo-5β-pregnan-3α-yl L-glutamyl 1-ester]
- hypolocomotion in open field after repeated social defeat [1]: reduced a hypolocomotion in an open field induced by agonistic interactions in mice
- action on the neuropathic pain model [2]: Beneficial action
- time spent floating / time to immobility in forced swim test [3]: spent significantly less time by floating, in comparison to controls
- anxiolytic effect, ultrasonic vocalization ([4]; 0.001, 0.01 and 10 mg/kg i.p., 30 min prior to testing): slight dose-dependent anxiolytic effect
- total duration of ultrasonic vocalizations ([4]; 10 mg/kg i.p.): Significant difference
